Assay results reported in paper PMC3496871 (Molecular bioSystems, 2012).
Entries after “also recorded” stand apart in the source; their conditions may differ.

Columns and labels:
Eis_Ava [1] = target: T1, Eis_Ava (Trichormus variabilis (Anabaena variabilis), UniProt Q3M362); assay: Number of acetylations of AGs by Eis_Ava; type: biochemical; conditions: mass spectrometry; AG 0.67 mM, AcCoA 6.7 mM, Eis_Ava 10 μM, overnight at rt
Eis_Mtb [2] = target: T2, Eis_Mtb (Mycobacterium tuberculosis, UniProt P9WFK7); conditions: cited from earlier work
Eis_Msm [3] = conditions: cited from earlier work
Eis_Ava [4] = target: T1, Eis_Ava; assay: Regio-specificity of NEA acetylation by Eis_Ava; type: biochemical
Eis_Msm [5] = target: T3, Eis_Msm (Mycolicibacterium smegmatis, UniProt A0QY29); assay: UV-Vis assay of Eis_Msm activity against KAN and 6′-glycinyl-KAN; conditions: AG 0.1 mM, AcCoA 0.5 mM, Eis 0.5 μM
Eis_Ava [6] = target: T1, Eis_Ava; assay: UV-Vis assay of Eis_Ava activity against KAN and 6′-glycinyl-KAN; conditions: AG 0.1 mM, AcCoA 0.5 mM, Eis 0.5 μM
Eis_Mtb [7] = target: T2, Eis_Mtb; type: biochemical; conditions: AG 0.1 mM, AcCoA 0.5 mM, Eis 0.5 μM
Eis_Ava [8] = target: T1, Eis_Ava; assay: Acyl-CoA cosubstrate profile of Eis_Ava; type: biochemical; conditions: 6 acyl-CoA cosubstrates tested
Eis_Mtb [9] = target: T2, Eis_Mtb; conditions: transfer onto a few AGs; cited from earlier work
Eis_Ava [10] = target: T1, Eis_Ava; assay: biochemical; type: biochemical
Eis_Ava [11] = assay: biochemical; type: biochemical
Eis_Msm [12] = target: T3, Eis_Msm; type: biochemical; conditions: read-out: IC50 Eis_Msm; NEO acetylation
[13] = system: NC[C@@H]1O[C@H](O[C@H]2[C@@H](O)[C@H](O[C@@H]3[C@@H](O)[C@H](N)C[C@H](N)[C@H]3O[C@H]3O[C@H](CO)[C@@H](O)[C@H](O)[C@H]3N)O[C@@H]2CO)[C@H](N)[C@@H](O)[C@@H]1O; assay: purified protein, by the assay type; type: biochemical, Mycobacterium smegmatis; conditions: other: Eis_Msm […], 500 μM AcCoA, apparent, pH 7.5
[14] = system: CN[C@@H]1[C@@H](O[C@H]2O[C@H](CO)[C@@H](N)[C@H](O)[C@H]2O)OC2C[C@@H](N)[C@@H](O[C@H]3[C@H](O)[C@@H](O)[C@H](N)C[C@@H]3N)OC2[C@@H]1O; assay: purified protein, by the assay type; type: biochemical, Mycobacterium smegmatis; conditions: other: Eis_Msm […], 500 μM AcCoA, apparent, pH 7.5
[15] = system: NC[C@H]1O[C@H](O[C@H]2[C@H](O)[C@@H](O)[C@H](N)C[C@@H]2N)[C@H](N)[C@@H](O)[C@@H]1O; assay: purified protein, by the assay type; type: biochemical, Mycobacterium smegmatis; conditions: other: Eis_Msm […], 500 μM AcCoA, apparent, pH 7.5
[16] = system: NC[C@@H]1O[C@H](O[C@H]2[C@@H](O)[C@H](O[C@@H]3[C@@H](O)[C@H](N)C[C@H](N)[C@H]3O[C@H]3O[C@H](CN)[C@@H](O)[C@H](O)[C@H]3N)O[C@@H]2CO)[C@H](N)[C@@H](O)[C@@H]1O; assay: purified protein, by the assay type; type: biochemical, Mycobacterium smegmatis; conditions: other: Eis_Msm […], 500 μM AcCoA, apparent, pH 7.5
[17] = system: NC[C@@H]1O[C@H](O[C@H]2[C@@H](O)[C@H](O[C@@H]3[C@@H](O)[C@H](N)C[C@H](N)[C@H]3O[C@H]3O[C@H](CO)[C@@H](O)[C@H](O)[C@H]3N)O[C@@H]2CO)[C@H](N)[C@@H](O)[C@@H]1O; assay: purified protein, by the assay type; type: biochemical, Anabaena variabilis; conditions: other: Eis_Ava […], 500 μM AcCoA, apparent, pH 7.5
[18] = system: CN[C@@H]1[C@@H](O[C@H]2O[C@H](CO)[C@@H](N)[C@H](O)[C@H]2O)OC2C[C@@H](N)[C@@H](O[C@H]3[C@H](O)[C@@H](O)[C@H](N)C[C@@H]3N)OC2[C@@H]1O; assay: purified protein, by the assay type; type: biochemical, Anabaena variabilis; conditions: other: Eis_Ava […], 500 μM AcCoA, apparent, pH 7.5
[19] = system: NC[C@H]1O[C@H](O[C@H]2[C@H](O)[C@@H](O)[C@H](N)C[C@@H]2N)[C@H](N)[C@@H](O)[C@@H]1O; assay: purified protein, by the assay type; type: biochemical, Anabaena variabilis; conditions: other: Eis_Ava […], 500 μM AcCoA, apparent, pH 7.5
[20] = system: NC[C@@H]1O[C@H](O[C@H]2[C@@H](O)[C@H](O[C@@H]3[C@@H](O)[C@H](N)C[C@H](N)[C@H]3O[C@H]3O[C@H](CN)[C@@H](O)[C@H](O)[C@H]3N)O[C@@H]2CO)[C@H](N)[C@@H](O)[C@@H]1O; assay: purified protein, by the assay type; type: biochemical, Anabaena variabilis; conditions: other: Eis_Ava […], 500 μM AcCoA, apparent, pH 7.5
[21] = system: NC[C@H]1O[C@H](O[C@H]2[C@H](O)[C@@H](O)[C@H](N)C[C@@H]2N)[C@H](N)[C@@H](O)[C@@H]1O; assay: purified protein, by the assay type; type: biochemical, Mycobacterium tuberculosis; conditions: other: Eis_Mtb […], 500 μM AcCoA, apparent, pH 7.5
Eis_Mtb [22] = target: T2, Eis_Mtb; type: biochemical; conditions: 500 μM AcCoA, apparent

T2 sequence (P9WFK7 whole entry): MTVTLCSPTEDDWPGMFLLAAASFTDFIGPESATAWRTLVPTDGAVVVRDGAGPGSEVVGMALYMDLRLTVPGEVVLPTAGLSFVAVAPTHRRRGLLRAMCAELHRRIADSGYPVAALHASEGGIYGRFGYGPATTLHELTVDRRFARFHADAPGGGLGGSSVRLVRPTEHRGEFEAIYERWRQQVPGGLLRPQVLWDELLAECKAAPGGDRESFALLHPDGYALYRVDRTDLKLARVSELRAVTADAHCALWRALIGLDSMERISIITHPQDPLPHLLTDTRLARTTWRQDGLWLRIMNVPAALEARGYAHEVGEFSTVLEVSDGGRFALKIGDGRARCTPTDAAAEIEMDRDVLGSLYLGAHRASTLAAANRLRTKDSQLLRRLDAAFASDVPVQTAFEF

[H]/N=C(/N)N[C@H]1[C@H](O)[C@@H](O)[C@H](O[C@@H]2O[C@@H](C)[C@](O)(C=O)[C@H]2O[C@@H]2O[C@@H](CO)[C@H](O)[C@@H](O)[C@@H]2NC)[C@@H](N/C(N)=N\[H])[C@@H]1O [STR, streptomycin]
number of acetylations by Eis_Ava (Eis_Ava [1]): not be substrates

NC[C@H]1O[C@H](O[C@H]2[C@H](O)[C@@H](O)[C@H](N)C[C@@H]2N)[C@H](N)[C@@H](O)[C@@H]1O [NEA, neamine]
positions sequentially acetylated by Eis_Mtb (Eis_Mtb [2]): 2′-, 6′-, and 1-position | positions sequentially acetylated by Eis_Msm (Eis_Msm [3]): 2′-, 6′-, and 1-position | number of acetylations of NEA by Eis_Ava observed by TLC and NMR (Eis_Ava [4]): di-acetylation | first position acetylated by Eis_Ava (Eis_Ava [4]; TLC and NMR): 2′-position | second site modified by Eis_Ava (Eis_Ava [4]; TLC and NMR): 1-position

kanamycin A
acetylation by Eis_Msm (UV-Vis) (Eis_Msm [5]): efficiently gets multi-acetylated | acetylation by Eis_Ava (UV-Vis) (Eis_Ava [6]): efficiently gets multi-acetylated | acetylation by Eis_Mtb (UV-Vis) (Eis_Mtb [7]): efficiently gets multi-acetylated

CN[C@@H]1[C@H](O)[C@H](NC)[C@H]2O[C@@]3(O)C(=O)C[C@@H](C)O[C@H]3O[C@@H]2[C@H]1O [SPT, spectinomycin]
number of acetylations by Eis_Ava (Eis_Ava [1]): not be substrates

CC(=O)SCCNC(=O)CCNC(=O)[C@H](O)C(C)(C)COP(=O)(O)OP(=O)(O)OC[C@H]1O[C@@H](n2cnc3c(N)ncnc32)[C@H](O)[C@@H]1OP(=O)(O)O [AcCoA]
acceptance as cosubstrate by Eis_Ava (Eis_Ava [8]): accepted | acceptance as cosubstrate by Eis_Mtb (Eis_Mtb [9]): efficiently accepting

[H]/N=C(\N/C(=N/[H])NCCCCCCNC(=N)NC(=N)Nc1ccc(Cl)cc1)Nc1ccc(Cl)cc1 [compound 1, chlorhexidine]
IC50 (Eis_Ava [10]): 20 ± 7 µM | IC50 for Eis_Ava fold higher than against Eis_Msm (Eis_Ava [11]): 11 fold | IC50 for Eis_Ava fold higher than for Eis_Mtb (Eis_Ava [11]): 107 fold | IC50 (Eis_Msm [12]): 1.85 ± 0.39 µM

C/C=C/C(=O)SCCNC(=O)CCNC(=O)[C@H](O)C(C)(C)COP(=O)(O)OP(=O)(O)OC[C@H]1O[C@@H](n2cnc3c(N)ncnc32)[C@H](O)[C@@H]1OP(=O)(O)O [crotonyl-CoA]
acceptance as cosubstrate by Eis_Mtb (Eis_Mtb [9]): moderately so

CC(C)(COP(=O)(O)OP(=O)(O)OC[C@H]1O[C@@H](n2cnc3c(N)ncnc32)[C@H](O)[C@@H]1OP(=O)(O)O)[C@@H](O)C(=O)NCCC(=O)NCCSC(=O)CC(=O)O [malonyl-CoA]
acceptance as cosubstrate by Eis_Mtb (Eis_Mtb [9]): moderately so

Eis_Msm (Mycolicibacterium smegmatis MC2 155)
Km [13]: 738 ± 158 µM | kcat [13]: 0.235 ± 0.033 s⁻¹ | kcat/Km [13]: 318 ± 82 M⁻¹ s⁻¹ | Km [14]: 150 ± 43 µM | kcat [14]: 0.019 ± 0.002 s⁻¹ | kcat/Km [14]: 127 ± 39 M⁻¹ s⁻¹ | Km [15]: 1302 ± 312 µM | kcat [15]: 0.687 ± 0.083 s⁻¹ | kcat/Km [15]: 528 ± 142 M⁻¹ s⁻¹ | Km [16]: 110 ± 14 µM | kcat [16]: 0.148 ± 0.006 s⁻¹ | kcat/Km [16]: 1340 ± 180 M⁻¹ s⁻¹

Eis_Ava (Trichormus variabilis ATCC 29413)
Km [17]: 237 ± 36 µM | kcat [17]: 0.183 ± 0.013 s⁻¹ | kcat/Km [17]: 773 ± 132 M⁻¹ s⁻¹ | Km [18]: 337 ± 98 µM | kcat [18]: 0.019 ± 0.002 s⁻¹ | kcat/Km [18]: 57 ± 18 M⁻¹ s⁻¹ | Km [19]: 42 ± 9 µM | kcat [19]: 0.352 ± 0.021 s⁻¹ | kcat/Km [19]: 7410 ± 1940 M⁻¹ s⁻¹ | Km [20]: 101 ± 16 µM | kcat [20]: 0.106 ± 0.006 s⁻¹ | kcat/Km [20]: 1050 ± 184 M⁻¹ s⁻¹

Eis_Mtb (Mycobacterium tuberculosis H37Rv)
Km [21]: 1315 ± 492 µM | kcat [21]: 0.699 ± 0.136 s⁻¹ | kcat/Km [21]: 532 ± 224 M⁻¹ s⁻¹

NC[C@@H]1O[C@H](O[C@H]2[C@@H](O)[C@H](O[C@@H]3[C@@H](O)[C@H](N)C[C@H](N)[C@H]3O[C@H]3O[C@H](CO)[C@@H](O)[C@H](O)[C@H]3N)O[C@@H]2CO)[C@H](N)[C@@H](O)[C@@H]1O [PAR, paromomycin]
number of acetylations by Eis_Ava (Eis_Ava [1]): tri-acetylation | number of acetylations by Eis_Mtb (Eis_Mtb [2]): di-acetylation | number of acetylations by Eis_Msm (Eis_Msm [3]): tri-acetylation | Km (Eis_Mtb [22]): 110 ± 21 µM | kcat (Eis_Mtb [22]): 0.136 ± 0.012 s⁻¹

NCC(=O)NCC1OC(OC2C(N)CC(N)C(OC3OC(CO)C(O)C(N)C3O)C2O)C(O)C(O)C1O (stereo not shown) [6′-glycinyl-KAN]
acetylation by Eis_Msm (UV-Vis) (Eis_Msm [5]): not a substrate; also recorded: almost inactive | acetylation by Eis_Ava (UV-Vis) (Eis_Ava [6]): not a substrate; also recorded: almost inactive | acetylation by Eis_Mtb (UV-Vis) (Eis_Mtb [7]): not a substrate; also recorded: almost inactive

CN[C@@H]1[C@@H](O[C@H]2O[C@H](CO)[C@@H](N)[C@H](O)[C@H]2O)OC2C[C@@H](N)[C@@H](O[C@H]3[C@H](O)[C@@H](O)[C@H](N)C[C@@H]3N)OC2[C@@H]1O (stereo partly shown) [APR, apramycin]
number of acetylations by Eis_Ava (Eis_Ava [1]): mono-acetylated | substrate of Eis_Mtb (Eis_Mtb [2]): not be a substrate | number of acetylations by Eis_Msm (Eis_Msm [3]): Di-acetylation

CCC(=O)SCCNC(=O)CCNC(=O)[C@H](O)C(C)(C)COP(=O)(O)OP(=O)(O)OC[C@H]1O[C@@H](n2cnc3c(N)ncnc32)[C@H](O)[C@@H]1OP(=O)(O)O [n-propionyl-CoA]
acceptance as cosubstrate by Eis_Ava (Eis_Ava [8]): accepted | acceptance as cosubstrate by Eis_Mtb (Eis_Mtb [9]): efficiently accepting
